The structures appear in SMILES notation.

Usually melting point stands for the temperature, or range, at which the solid turns liquid. In turn, `O=C1NN=C(CCc2ccc(Cl)cc2)C1=Cc1c[nH]c2ccccc12` [Example 300, 3-(4-Chlorophenylethyl)-4-[(indol-3-yl)methylene]-2-pyrazolin-5-one] gave a melting point of 271 to 272 °C.

In the case of `CCOC1=NNC(=O)C1=Cc1cn(C)c2ccccc12` [Example 301, 3-Ethoxy-4-[(1-methylindol-3-yl)methylene]-2-pyrazolin-5-one], the melting point was 194 to 196 °C.

Molecule `Cn1cc(C=C2C(=O)NN=C2c2ccno2)c2ccccc21` [Example 302, 3-(5-Isoxazolyl)-4-[(1-methylindol-3-yl)methylene]-2-pyrazolin-5-one] returned a melting point of 271 to 272 °C.

The molecule `Cn1cc(C=C2C(=O)NN=C2C(C)(C)C)c2ccccc21` [Example 303, 4-[(1-Methylindol-3-yl)methylene]-3-tert-butyl-2-pyrazolin-5-one] showed a melting point of 201 to 203 °C.

For `Cn1cc(C=C2C(=O)NN=C2c2cnccn2)c2ccc(C(=O)O)cc21` [Example 304, 4-[(6-Carboxy-1-methylindol-3-yl)methylene]-3-pyrazinyl-2-pyrazolin-5-one], the melting point was more than 300 °C.

With `CC(C)OC1=NNC(=O)C1=Cc1cc2ccccc2[nH]1` [Example 306, 4-[(Indol-2-yl)methylene]-3-isopropoxy-2-pyrazolin-5-one], the melting point was 221 to 223 °C.

`O=C1NN=C(CCc2ccc(O)cc2)C1=Cc1cc2ccccc2[nH]1` [Example 307, 3-(4-Hydroxyphenylethyl)-4-[(indol-2-yl)methylene]-2-pyrazolin-5-one] yielded a melting point of 242 to 245 °C.

The molecule `Nc1ccc(CCC2=NNC(=O)C2=Cc2cc3ccccc3[nH]2)cc1` [Example 308, 3-(4-Aminophenylethyl)-4-[(indol-2-yl)methylene]-2-pyrazolin-5-one] yielded a melting point of 187 to 189 °C.

The molecule `COC(=O)c1ccc(CCC2=NNC(=O)C2=Cc2cc3ccccc3[nH]2)cc1` [Example 309, 3-(4-Methoxycarbonylphenylethyl]-4-[(indol-2-yl)methylene]-2-pyrazolin-5-one] yielded a melting point of 210 to 212 °C.

`NC(=O)c1ccc(CCC2=NNC(=O)C2=Cc2cc3ccccc3[nH]2)cc1` [Example 310, 3-(4-Carbamoylphenylethyl)-4-[(indol-2-yl)methylene]-2-pyrazolin-5-one] displayed a melting point of 263 to 265 °C.

The molecule `O=C1NN=C(C2CC2)C1=Cc1cc2ccccc2[nH]1` [Example 311, 3-Cyclopropyl-4-[(indol-2-yl)methylene]-2-pyrazolin-5-one] returned a melting point of 238 to 240 °C.

For the molecule `CN(C)Cc1c(C=C2C(=O)NN=C2C2CC2)[nH]c2ccccc12` [Example 312, 3-Cyclopropyl-4-[(3-dimethylaminomethylindol-2-yl)methylene]-2-pyrazolin-5-one], the melting point was 202 °C (dec.).

`COc1ccc2[nH]c(C=C3C(=O)NN=C3OC(C)C)cc2c1` [Example 314, 3-Isopropoxy-4-[(5-methoxyindol-2-yl)methylene]-2-pyrazolin-5-one]: the melting point fell in the range of 219 to 220 °C.

As for `CC(C)OC1=NNC(=O)C1=Cc1cc2ccccc2n1C` [Example 315, 3-Isopropoxy-4-[(1-methylindol-2-yl)methylene]-2-pyrazolin-5-one], the melting point lay within 254 to 255 °C.

`O=C1NN=C(C2CCOC2)C1=Cc1cc2ccccc2[nH]1` (stereo not shown) [Example 316, 4-[(Indol-2-yl)methylene]-3-(tetrahydrofuran-3-yl)-2-pyrazolin-5-one] registered a melting point of 180 to 183 °C.

With `COc1ccc2[nH]c(C=C3C(=O)NN=C3C3CC3)cc2c1` [Example 317, 3-Cyclopropyl-4-[(5-methoxyindol-2-yl)methylene]-2-pyrazolin-5-one], the melting point fell in the range of 221 to 224 °C.

On to `O=C1NN=C(C2CC2)C1=Cc1cc2cc([N+](=O)[O-])ccc2[nH]1` [Example 318, 3-Cyclopropyl-4-[(5-nitroindol-2-yl)methylene]-2-pyrazolin-5-one], for which the melting point lay within 316 to 320 °C.

With `O=C1NN=C(CCc2ccc(C(=O)O)cc2)C1=Cc1cc2ccccc2[nH]1` [Example 320, 3-(4-Carboxyphenylethyl)-4-[(indol-2-yl)methylene]-2-pyrazolin-5-one], the melting point is more than 300 °C.

For `O=C1NN=C(c2ccccc2)C1=Cc1cc2ccccc2[nH]1` [Example 321, 4-[(Indol-2-yl)methylene]-3-phenyl-2-pyrazolin-5-one], the melting point lay in the range of 210 to 211 °C.

In turn, `Cc1c(C=C2C(=O)NN=C2OC(C)C)[nH]c2ccccc12` [Example 322, 3-Isopropoxy-4-[(3-methylindol-2-yl)methylene]-2-pyrazolin-5-one] had a melting point of 241 to 243 °C.

As to `COC(=O)C(Cc1c(C=C2C(=O)NN=C2OC(C)C)[nH]c2ccccc12)NC(C)=O` (stereo not shown) [Example 323, 3-Isopropoxy-4-{[3-(2-methoxycarbonyl-2-acetamidoethyl)indol-2-yl]methylene}-2-pyrazolin-5-one], the melting point lay in the range of 205 to 206 °C.

Take `CCOC1=NNC(=O)C1=Cc1cc2ccccc2[nH]1` [Example 324, 3-Ethoxy-4-[(indol-2-yl)methylene]-2-pyrazolin-5-one]: the melting point was 265 to 267 °C.

`COc1ccc2[nH]c(C=C3C(=O)NN=C3c3cnccn3)cc2c1` [Example 327, 4-[(5-Methoxyindol-2-yl)methylene]-3-pyrazinyl-2-pyrazolin-5-one] yielded a melting point of 272 to 274 °C.

Molecule `COc1ccc2[nH]c(C=C3C(=O)NN=C3c3ccccn3)cc2c1` [Example 328, 4-[(5-Methoxyindol-2-yl)methylene]-3-(2-pyridyl)-2-pyrazolin-5-one] gave a melting point of 170 to 172 °C.

Molecule `CCOC1=NNC(=O)C1=Cc1cc2c([nH]1)CCC=C2Cl` [Example 329, 4-[(4-Chloro-6,7-dihydroindol-2-yl)methylene]-3-ethoxy-2-pyrazolin-5-one] registered a melting point of 177 to 203 °C.

As to `O=C1NN=C(c2cnccn2)C1=Cc1cc2c([nH]1)CCC=C2Cl` [Example 330, 4-[(4-Chloro-6,7-dihydroindol-2-yl)methylene]-3-pyrazinyl-2-pyrazolin-5-one], the melting point is 206 to 209 °C.

For the molecule `CCOC1=NNC(=O)C1=Cc1[nH]c2ccccc2c1CN(C)C` [Example 332, 4-[(3-Dimethylaminomethylindol-2-yl)methylene]-3-ethoxy-2-pyrazolin-5-one], the melting point was 185 to 187 °C.

`O=C1NN=C(Cc2ccccc2)C1=Cc1c[nH]c2ncccc12` [Example 333, 4-[(7-Azaindol-3-yl)methylene]-3-benzyl-2-pyrazolin-5-one] had a melting point of 274 to 277 °C.

`O=C1NN=C(Cc2ccccc2)C1=Cc1cn(CCCCO)c2ncccc12` [Example 334, 3-Benzyl-4-{[1-(4-hydroxybutyl)-7-azaindol-3-yl]methylene}-2-pyrazolin-5-one] had a melting point of 176 to 179 °C.

For `COc1ccc(OCC2=NNC(=O)C2=Cc2c[nH]c3ncccc23)cc1` [Example 335, 4-[(7-Azaindol-3-yl)methylene]-3-(4-methoxyphenyloxymethyl)-2-pyrazolin-5-one], the melting point was 300 to 302 °C.

The molecule `CC(C)OC1=NNC(=O)C1=Cc1c[nH]c2ncccc12` [Example 336, 4-[(7-Azaindol-3-yl)methylene]-3-isopropoxy-2-pyrazolin-5-one] had a melting point of 258 to 260 °C.

Values taken from US7060822B1, “2-pyrazolin-5-ones” (Abbott GmbH & Co. KG, priority 1999, dated 2006).
